Results as given in the supplement of paper PMC10307832.

Columns and labels:
Experiment in all cases: relative viability (nuclei count vs DMSO), 5 days (fraction); higher = more cells survive
[1] = compound: C1CN(CCN1)C2=CC=C(C=C2)C3=CN4C(=C(C=N4)C5=CC=NC6=CC=CC=C56)N=C3 [DM3189] + CS(=O)(=O)CCNCc1ccc(-c2ccc3ncnc(Nc4ccc(OCc5cccc(F)c5)c(Cl)c4)c3c2)o1 [Lapatinib] (partner 2 µM)
How it was run: (§1)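 Cells from lung cancer lines were seeded into 1536-well plates and, one day later, dosed by pin tool. Treatments were either a single drug or a fixed dose of an anchor drug with five library-drug doses (not always all listed) in √10 steps. After 5 days, nuclei were stained in a one-step fixation (final 0.05% Triton X-100, 1% formaldehyde, 1 ug/ml Hoechst) and counted on 4× images, and relative viability is the treated-to-vehicle nuclei ratio, as the median of duplicate plates.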

[2] = compound: C1CN(CCN1)C2=CC=C(C=C2)C3=CN4C(=C(C=N4)C5=CC=NC6=CC=CC=C56)N=C3 [DM3189] + Nc1nc2[nH]cc(CCc3ccc(C(=O)N[C@@H](CCC(=O)O)C(=O)O)cc3)c2c(=O)[nH]1 [Pemetrexed] (partner 0.2 µM)
How it was run: as §1

[3] = compound: C1CN(CCN1)C2=CC=C(C=C2)C3=CN4C(=C(C=N4)C5=CC=NC6=CC=CC=C56)N=C3 [DM3189] + CC(C)C[C@H](NC(=O)[C@H](Cc1ccccc1)NC(=O)c1cnccn1)B(O)O [Bortezomib] (partner 0.002 µM)
How it was run: as §1

[4] = compound: C1CN(CCN1)C2=CC=C(C=C2)C3=CN4C(=C(C=N4)C5=CC=NC6=CC=CC=C56)N=C3 [DM3189] + CC(=O)c1c(C)c2cnc(Nc3ccc(N4CCNCC4)cn3)nc2n(C2CCCC2)c1=O [Palbociclib] (partner 0.5 µM)
How it was run: as §1

[5] = compound: C1CN(CCN1)C2=CC=C(C=C2)C3=CN4C(=C(C=N4)C5=CC=NC6=CC=CC=C56)N=C3 [DM3189] + CS(=O)(=O)N1CCN(Cc2cc3nc(-c4cccc5[nH]ncc45)nc(N4CCOCC4)c3s2)CC1 [Pictilisib] (partner 1 µM)
How it was run: as §1

Row | Cell Line | relative viability ([1]; first compound 0.08 µM) | relative viability ([1]; first compound 0.253 µM) | relative viability ([1]; first compound 0.8 µM) | relative viability ([1]; first compound 2.53 µM) | relative viability ([2]; first compound 0.08 µM) | relative viability ([2]; first compound 0.253 µM) | relative viability ([2]; first compound 0.8 µM) | relative viability ([2]; first compound 2.53 µM) | relative viability ([3]; first compound 0.08 µM) | relative viability ([3]; first compound 0.253 µM) | relative viability ([3]; first compound 0.8 µM) | relative viability ([3]; first compound 2.53 µM) | relative viability ([4]; first compound 0.08 µM) | relative viability ([4]; first compound 0.253 µM) | relative viability ([4]; first compound 0.8 µM) | relative viability ([4]; first compound 2.53 µM) | relative viability ([5]; first compound 0.08 µM) | relative viability ([5]; first compound 0.253 µM) | relative viability ([5]; first compound 0.8 µM) | relative viability ([5]; first compound 2.53 µM)
1 | NCI-H2126 | 0.869 | 0.775 | 0.673 | 0.732 | 0.717 | 0.624 | 0.565 | 0.652 | 1.19 | 1.18 | 1.19 | 1.12 | 0.346 | 0.348 | 0.367 | 0.374 | 0.544 | 0.53 | 0.465 | 0.478
2 | NCI-H2228 | 1.51 | 1.08 | 0.865 | 0.263 | 0.365 | 0.315 | 0.361 | 0.226 | 1.19 | 1.12 | 0.847 | 0.659 | 1.09 | 0.75 | 0.472 | 0.307 | 0.362 | 0.33 | 0.329 | 0.283
3 | NCI-H2347 | 1.09 | 0.866 | 0.703 | 0.97 | 0.473 | 0.51 | 0.432 | 0.518 | 1.08 | 0.91 | 0.944 | 1.17 | 0.412 | 0.4 | 0.417 | 0.435 | 0.493 | 0.452 | 0.569 | 0.517
4 | NCI-H2405 | 1.14 | 1.01 | 0.979 | 0.958 | 1.1 | 0.917 | 0.997 | 1.06 | 0.986 | 0.946 | 0.966 | 0.96 | 0.54 | 0.55 | 0.494 | 0.453 | 0.467 | 0.378 | 0.422 | 0.408
5 | NCI-H3122 | 0.976 | 1.02 | 0.911 | 0.878 | 0.203 | 0.197 | 0.184 | 0.159 | 0.979 | 0.983 | 0.973 | 0.982 | 0.2 | 0.178 | 0.154 | 0.162 | 0.568 | 0.466 | 0.601 | 0.502
6 | PC-3 [JPC-3] | 0.436 | 0.456 | 0.431 | 0.439 | 1.5 | 1.02 | 1.08 | 0.856 | 1 | 0.869 | 0.849 | 0.785 | 0.574 | 0.48 | 0.553 | 0.543 | 0.871 | 0.71 | 0.669 | 0.75
7 | PC-14 | 0.319 | 0.284 | 0.34 | 0.377 | 0.142 | 0.125 | 0.14 | 0.122 | 0.832 | 0.885 | 0.832 | 0.812 | 0.591 | 0.458 | 0.465 | 0.449 | 0.782 | 0.739 | 0.673 | 0.538
8 | RERF-LC-KJ | 0.965 | 0.954 | 0.843 | 0.854 | 0.461 | 0.471 | 0.469 | 0.559 | 1.61 | 1.21 | 1.15 | 1.26 | 1.31 | 1.27 | 0.989 | 1.03 | 0.585 | 0.694 | 0.602 | 0.562
9 | SK-LU-1 | 0.864 | 0.718 | 0.583 | 0.459 | 1 | 0.863 | 0.857 | 0.549 | 1.24 | 0.882 | 0.738 | 0.7 | 0.339 | 0.268 | 0.329 | 0.31 | 0.531 | 0.4 | 0.393 | 0.393
10 | SW 1573 | 1.1 | 0.944 | 1.16 | 1.23 | 0.948 | 0.791 | 0.706 | 0.638 | 1.16 | 0.869 | 1 | 0.82 | 0.454 | 0.342 | 0.339 | 0.255 | 0.541 | 0.491 | 0.466 | 0.399
11 | UMC-11 | 1.2 | 1.04 | 0.868 | 0.751 | 0.845 | 0.763 | 0.814 | 0.562 | 0.863 | 0.635 | 0.769 | 0.397 | 0.371 | 0.333 | 0.313 | 0.323 | 0.836 | 0.795 | 0.764 | 0.702
